Target: T1, Succinate dehydrogenase [ubiquinone] iron-sulfur subunit, mitochondrial (Homo sapiens, UniProt P21912)
T1 sequence (P21912 whole entry): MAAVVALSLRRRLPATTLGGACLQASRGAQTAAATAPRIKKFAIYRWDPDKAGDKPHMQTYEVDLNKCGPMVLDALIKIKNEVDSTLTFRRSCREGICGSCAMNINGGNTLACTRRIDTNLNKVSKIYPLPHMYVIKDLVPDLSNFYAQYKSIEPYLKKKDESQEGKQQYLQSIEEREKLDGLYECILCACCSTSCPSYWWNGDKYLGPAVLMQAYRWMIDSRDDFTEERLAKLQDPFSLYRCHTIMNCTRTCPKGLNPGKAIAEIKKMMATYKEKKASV
Assay: Apoptosis Inhibition Assay
Text: In order to identify the target protein of tTC09 apoptosis inhibitors, we synthesized two sets of probes for target identification based on the SAR study. The first set of probes was designed for direct activity based protein profiling (ABPP) with biotin tag linked at different site. […] TC09 apoptosis inhibitors could stabilize the mitochondrial respiratory chain after Bim/tBid overexpression and help maintain the normal function of mitochondria. A second set of probes with a terminal alkyne group designed for click-reaction-assisted ABPP were also prepared.

EC50 [µM]	Structure (SMILES)
3.52	N#Cc1cccc(C[S+]([O-])c2nc(-c3cccs3)cc(C(F)(F)F)n2)c1 (stereo not given) [US11725000, Compound 15]
0.069	O=C1CCCN1CC[S+]([O-])c1nc(-c2cccs2)cc(C(F)(F)F)n1 (stereo not given) [US11725000, Compound 25]
0.499	O=C(O)CC[S+]([O-])c1nc(-c2cccs2)cc(C(F)(F)F)n1 (stereo not given) [US11725000, Compound 28]
0.057	O=S(=O)(Cc1ccc2c(ccc[n+]2[O-])c1)c1nc(-c2cccs2)cc(C(F)(F)F)n1 [US11725000, Compound 23]
1.16	O=S(=O)(Cc1cc(F)cc(F)c1)c1nc(-c2cccs2)cc(C(F)(F)F)n1 [US11725000, Compound 18]
0.817	Cc1cc(-c2cccs2)nc(S(C)(=O)=O)n1 [US11725000, Compound 34]
0.11	[O-][S+](Cc1ccc2ncccc2c1)c1nc(-c2cccs2)cc(C(F)(F)F)n1 (stereo not given) [US11725000, Compound 24]
0.995	C#Cc1cc(-c2cccs2)nc(S(C)(=O)=O)n1 [US11725000, Compound 35]
4.21	CCCS(=O)(=O)c1nc(-c2cccs2)cc(C(F)(F)F)n1 [US11725000, Compound 4]
2.2	[O-][S+](CC1CC1)c1nc(-c2cccs2)cc(C(F)(F)F)n1 (stereo not given) [US11725000, Compound 10]
0.064	COC(=O)CCC[S+]([O-])c1nc(-c2cccs2)cc(C(F)(F)F)n1 (stereo not given) [US11725000, Compound 32]
0.104	CCOC(=O)CCS(=O)(=O)c1nc(-c2cccs2)cc(C(F)(F)F)n1 [US11725000, Compound 29]
4.48	C[S+]([O-])c1nc(Cl)cc(-c2cccs2)n1 (stereo not given) [US11725000, Compound 33]
1.17	CCC[S+]([O-])c1nc(-c2cccs2)cc(C(F)(F)F)n1 (stereo not given) [US11725000, Compound 5]
4.88	CCOC(=O)CC[S+]([O-])c1nc(-c2cccs2)cc(C(F)(F)F)n1 (stereo not given) [US11725000, Compound 30]
0.094	O=S(=O)(CCc1ccccc1)c1nc(-c2cccs2)cc(C(F)(F)F)n1 [US11725000, Compound 26]
6.64	O=S(=O)(Cc1ccccc1)c1nc(-c2cccs2)cc(C(F)(F)F)n1 [US11725000, Compound 11]
6.35	N#Cc1ccccc1CS(=O)(=O)c1nc(-c2cccs2)cc(C(F)(F)F)n1 [US11725000, Compound 13]
1.41	O=S(=O)(Cc1ccc([N+]2([O-])CCOCC2)cc1)c1nc(-c2cccs2)cc(C(F)(F)F)n1 [US11725000, Compound 22]
7.03	N#Cc1ccccc1C[S+]([O-])c1nc(-c2cccs2)cc(C(F)(F)F)n1 (stereo not given) [US11725000, Compound 14]
0.013	[O-][S+](CCc1ccccc1)c1nc(-c2cccs2)cc(C(F)(F)F)n1 (stereo not given) [US11725000, Compound 27]
3.49	[O-][S+](Cc1ccccc1)c1nc(-c2cccs2)cc(C(F)(F)F)n1 (stereo not given) [US11725000, Compound 12]
1 to 10	CS(=O)(=O)c1nc(-c2cccs2)cc(C(F)(F)F)n1 [US11725000, Compound 1]
1.14	[O-][S+](Cc1cc(F)cc(F)c1)c1nc(-c2cccs2)cc(C(F)(F)F)n1 (stereo not given) [US11725000, Compound 19]
0.257	[O-][S+](Cc1ccc(-c2ccccc2)cc1)c1nc(-c2cccs2)cc(C(F)(F)F)n1 (stereo not given) [US11725000, Compound 20]
